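Five compound concentrations were applied to cells in 96-well plates for 48 hours; endpoints were derived by simple linear interpolation of the resulting dose-response curve. GI50 is the concentration that inhibits growth by half. TGI is the concentration that stops growth completely.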
Assays:
Assay in all cases: NCI tumour cell line growth inhibition, 48 h
UO-31 renal = test system: UO-31 renal
HOP-62 NSCLC = test system: HOP-62 NSCLC
NCI-H226 lung = test system: NCI-H226 lung
CCRF-CEM leukemia = test system: CCRF-CEM leukemia
DU-145 prostate = test system: DU-145 prostate
NCI-H23 lung = test system: NCI-H23 lung
KM12 colon = test system: KM12 colon
HCT-15 colon = test system: HCT-15 colon
A498 renal = test system: A498 renal
SK-MEL-28 melanoma = test system: SK-MEL-28 melanoma
OVCAR-3 ovarian = test system: OVCAR-3 ovarian
NCI-H460 lung = test system: NCI-H460 lung
MOLT-4 leukemia = test system: MOLT-4 leukemia
HCT-116 colon = test system: HCT-116 colon
OVCAR-5 ovarian = test system: OVCAR-5 ovarian
UACC-257 melanoma = test system: UACC-257 melanoma
IGROV1 ovarian = test system: IGROV1 ovarian
SK-MEL-5 melanoma = test system: SK-MEL-5 melanoma
OVCAR-4 ovarian = test system: OVCAR-4 ovarian
M14 melanoma = test system: M14 melanoma
MALME-3M melanoma = test system: MALME-3M melanoma
SK-OV-3 ovarian = test system: SK-OV-3 ovarian
SK-MEL-2 melanoma = test system: SK-MEL-2 melanoma
T-47D breast = test system: T-47D breast
MCF7 breast = test system: MCF7 breast
MDA-MB-231 breast = test system: MDA-MB-231 breast
SF-539 CNS = test system: SF-539 CNS
UACC-62 melanoma = test system: UACC-62 melanoma
HOP-92 NSCLC = test system: HOP-92 NSCLC
SR leukemia = test system: SR leukemia
NCI-H522 lung = test system: NCI-H522 lung
SF-268 CNS = test system: SF-268 CNS
LOX IMVI melanoma = test system: LOX IMVI melanoma
BT-549 breast = test system: BT-549 breast
NCI/ADR-RES ovarian = test system: NCI/ADR-RES ovarian
U251 CNS = test system: U251 CNS
K-562 leukemia = test system: K-562 leukemia
PC-3 prostate = test system: PC-3 prostate
OVCAR-8 ovarian = test system: OVCAR-8 ovarian
RXF 393 renal = test system: RXF 393 renal
RPMI-8226 leukemia = test system: RPMI-8226 leukemia
TK-10 renal = test system: TK-10 renal
COLO 205 colon = test system: COLO 205 colon
ACHN renal = test system: ACHN renal
HS 578T breast = test system: HS 578T breast
CAKI-1 renal = test system: CAKI-1 renal
SW-620 colon = test system: SW-620 colon
SF-295 CNS = test system: SF-295 CNS
HCC-2998 colon = test system: HCC-2998 colon
786-0 renal = test system: 786-0 renal
MDA-MB-435 = test system: MDA-MB-435
SNB-19 CNS = test system: SNB-19 CNS
SN12C renal = test system: SN12C renal
A549 NSCLC = test system: A549 NSCLC
SNB-75 CNS = test system: SNB-75 CNS
EKVX NSCLC = test system: EKVX NSCLC
HT29 colon = test system: HT29 colon
HL-60(TB) leukemia = test system: HL-60(TB) leukemia

## CC(=O)OCC(=O)[C@@]1(O)[C@H](C)C[C@H]2[C@@H]3C=C(C)C4=Cc5c(cnn5-c5ccc(F)cc5)C[C@]4(C)[C@H]3[C@@H](O)C[C@@]21C
UO-31 renal
  GI50: 4.31 µM
  TGI: 15.6 µM
HOP-62 NSCLC
  GI50: 1.28 µM
  TGI: 3.07 µM
NCI-H226 lung
  GI50: 2.23 µM
  TGI: 9.08 µM
CCRF-CEM leukemia
  GI50: < 0.0158 µM
DU-145 prostate
  GI50: 2.03 µM
  TGI: 5.17 µM
NCI-H23 lung
  GI50: 2.08 µM
  TGI: 5.8 µM
KM12 colon
  GI50: 1.44 µM
  TGI: 2.94 µM
HCT-15 colon
  GI50: 1.45 µM
  TGI: 3.63 µM
A498 renal
  GI50: 1.48 µM
  TGI: 3.15 µM
SK-MEL-28 melanoma
  GI50: 1.33 µM
  TGI: 2.81 µM
OVCAR-3 ovarian
  GI50: 1.78 µM
  TGI: 3.84 µM
NCI-H460 lung
  GI50: 1.47 µM
  TGI: 3.16 µM
MOLT-4 leukemia
  GI50: 1.94 µM
  TGI: 6.76 µM
HCT-116 colon
  GI50: 1.66 µM
  TGI: 3.5 µM
OVCAR-5 ovarian
  GI50: 1.41 µM
  TGI: 4.57 µM
UACC-257 melanoma
  GI50: 2.76 µM
  TGI: 8.54 µM
IGROV1 ovarian
  GI50: 2.85 µM
  TGI: 12.8 µM
SK-MEL-5 melanoma
  GI50: 1.26 µM
  TGI: 2.53 µM
OVCAR-4 ovarian
  GI50: 2.12 µM
  TGI: 11.5 µM
M14 melanoma
  GI50: 1.71 µM
  TGI: 3.5 µM
MALME-3M melanoma
  GI50: 2.36 µM
  TGI: 8.98 µM
SK-OV-3 ovarian
  GI50: 1.29 µM
  TGI: 4.57 µM
SK-MEL-2 melanoma
  GI50: 2.14 µM
  TGI: 6.36 µM
T-47D breast
  GI50: 2.75 µM
  TGI: 8.72 µM
MCF7 breast
  GI50: 1.89 µM
  TGI: 6.24 µM
MDA-MB-231 breast
  GI50: 2.56 µM
  TGI: 6.43 µM
SF-539 CNS
  GI50: 0.473 µM
  TGI: 2.35 µM
UACC-62 melanoma
  GI50: 1.73 µM
  TGI: 3.78 µM
HOP-92 NSCLC
  TGI: 5.87 µM
SR leukemia
  GI50: 2.35 µM
  TGI: 7.93 µM
NCI-H522 lung
  GI50: 1.84 µM
  TGI: 3.82 µM
SF-268 CNS
  GI50: 2.48 µM
  TGI: 8.39 µM
LOX IMVI melanoma
  GI50: 1.66 µM
  TGI: 3.8 µM
BT-549 breast
  GI50: 1.77 µM
  TGI: 4.78 µM
NCI/ADR-RES ovarian
  GI50: 1.9 µM
  TGI: 6.82 µM
U251 CNS
  GI50: 1.25 µM
  TGI: 3.27 µM
K-562 leukemia
  GI50: 1.15 µM
  TGI: > 23.2 µM
PC-3 prostate
  GI50: 1.8 µM
  TGI: 5.06 µM
OVCAR-8 ovarian
  GI50: 2.58 µM
  TGI: 11.3 µM
RXF 393 renal
  GI50: 0.709 µM
  TGI: 2.35 µM
RPMI-8226 leukemia
  GI50: 0.161 µM
  TGI: 1.14 µM
TK-10 renal
  GI50: 1.91 µM
  TGI: 6.03 µM
COLO 205 colon
  GI50: 1.74 µM
  TGI: 3.34 µM
ACHN renal
  GI50: 2.5 µM
  TGI: 9.97 µM
HS 578T breast
  GI50: 1.33 µM
  TGI: 4.05 µM
CAKI-1 renal
  GI50: 2.57 µM
  TGI: 10 µM
SW-620 colon
  GI50: 1.8 µM
  TGI: 3.41 µM
SF-295 CNS
  GI50: 0.982 µM
  TGI: 5.13 µM
HCC-2998 colon
  GI50: 1.88 µM
  TGI: 3.77 µM
786-0 renal
  GI50: 1.06 µM
  TGI: 2.55 µM
MDA-MB-435
  GI50: 2.35 µM
  TGI: 7.02 µM
SNB-19 CNS
  GI50: 2.03 µM
  TGI: 6.27 µM
SN12C renal
  GI50: 1.89 µM
  TGI: 7.08 µM
A549 NSCLC
  GI50: 1.45 µM
  TGI: 9.96 µM
SNB-75 CNS
  GI50: 1.19 µM
  TGI: 4.14 µM
EKVX NSCLC
  GI50: 1.88 µM
  TGI: 10.4 µM
HT29 colon
  GI50: 1.32 µM
  TGI: 3.07 µM
HL-60(TB) leukemia
  GI50: 4.1 µM
  TGI: 9.02 µM
